± gives the expanded uncertainty stated by the source.
Key:
[1] = Molar enthalpy of transition or fusion; conditions: Crystal; DSC
[2] = Crystal; DSC

SMILES: CCOC(=O)c1ccc(N)cc1 [ethyl 4-aminobenzoate]
- Molar enthalpy of transition or fusion [1]: 21.9 ± 0.99 kJ/mol
- Triple point temperature [2]: 363.2 ± 1.2 K
